Experimental data from article PMC9571594, “Development of Semisynthetic Apoptosis-Inducing Agents Based on Natural Phenolic Acids Scaffold: Design, Synthesis and In-Vitro Biological Evaluation” (Molecules, 2022).
Converted amounts (≈) assume the structure as drawn. “And” between values parts separate entries of the source, which are not always exact repeats. Equal values may be shown once. Read-outs that look alike come from different tables or passages of the source.

What was measured:
Caco-2 cancer cell line = assay: MTT cell viability assay, Caco-2; assay type: cell-based
Description: (§1) MCF-7 cells (Human breast adenocarcinoma), HepG2 (human hepatocellular carcinoma), A549 (human lung adenocarcinoma), Caco-2 (colon carcinoma), PANC-1 (human pancreatic cancer), and Vero cells (derived from normal kidney cells) were supplied by (Holding Company for Biological Products and Vaccines VACSERA; Giza, Egypt). The cells were cultured in PRMI 1640 medium (Lonza, Switzerland) supplemented with 10% fetal bovine serum (Gibco), 1% penicillin and 1% streptomycin (Sigma Aldrich, Saint Louis, MO, USA) at 37 °C under an atmosphere of 5% CO2 and 95% air.
(§2) The effect of parent compounds and their derivatives were assessed by (3-(4,5-dimethylthiazol-2-yl)-2,5diphenyl-tetrazolium bromide) MTT assay. […] After a merged sheet of cells developed, the growth media was decanted from the 96-well microtiter and refilled with different concentrations of compounds (µg/mL), and the plate was incubated at 37 °C for 48 h to minimize exposure to the dissolving agent (Supporting Information).
(§3) MTT solution (BIO BASIC CANADA INC) was prepared [5 mg/mL in phosphate buffered saline (PBS)], added to each well and incubated for 4 h, then after removing the media, 200 μL of DMSO was added to each well to solubilize the formazan crystals and the optical density of the formazan product was measured at 560 nm using microplate reader (mindray, MR-96A). The results were calculated as the mean of the three independent experiments. […]
(§4) Determination of sample cytotoxicity on cells (MTT protocol) […]
(§5) well) and incubated at 37°C for 24 hours to develop a complete monolayer sheet.
(§6) 2- Growth medium was decanted from 96 well micro titer plates after confluent sheet of cells were formed, cell monolayer was washed twice with wash media.
(§7) 3- two-fold dilutions of tested sample was made in RPMI medium with 2% serum […]
(§8) 4- 0.1 ml of each dilution was tested in different wells leaving 3 wells as control, receiving only maintenance medium.
(§9) 5- Plate was incubated at 37°C and examined. Cells were checked for any physical signs of toxicity, e.g. partial or complete loss of the monolayer, rounding, shrinkage, […]
(§10) 6- MTT solution was prepared (5mg/ml in PBS) (BIO BASIC CANADA INC).
(§11) 8- 20ul MTT solution were added to each well. Place on a shaking table, 150rpm for 5 minutes, to thoroughly mix the MTT into the media.
(§12) 10) Dump off the media. (dry plate on paper towels to remove residue if necessary. […] 9 ش - ايلعلا هبضهلا - مطقملا / ىسيئرلا لمعملا […]

[1] = MTT cell viability assay on normal Vero cells (selectivity); assay type: cell-based; conditions: African green monkey, Vero cells (normal kidney cells)
Description: (§13) MCF-7 cells (Human breast adenocarcinoma), HepG2 (human hepatocellular carcinoma), A549 (human lung adenocarcinoma), Caco-2 (colon carcinoma), PANC-1 (human pancreatic cancer), and Vero cells (derived from normal kidney cells) were supplied by (Holding Company for Biological Products and Vaccines VACSERA; Giza, Egypt).
as §2, §3, §4, §5, §6, §7, §8, §9, §10, §11
(§14) 10) Dump off the media. (dry plate on paper towels to remove residue if necessary. […]

Vero normal cell line = assay: as above; assay type: cell-based
Description: as §13, §2, §3, §4, §5, §6, §7, §8, §9, §10, §11, §14

A549 cells = assay: MTT cell viability assay, A549; assay type: cell-based, human
Description: as §1, §2, §3, §4, §5, §6, §7, §8, §9, §10, §11, §12

Caco-2 cells = assay: Cell-cycle analysis by flow cytometry; assay type: cell-based; conditions: Caco-2 cells; Pre-G1 = apoptotic population
Description: The potential candidates with anti-tumor effect on the Caco-2 cell line along with a high SI were chosen for cell-cycle analysis. The cell-cycle distribution and cell death were analyzed using Annexin V-FITC/PI staining and flow cytometry (Table 4, Figure 4).
In order to determine the percentage of viable, apoptotic and necrotic cells after treatment with our compounds, double-staining with fluorescein isothiocyanate (FITC) and PI was performed. Annexin V-FITC Apoptosis Detection Kit (BioVision, CA, USA) was used. Briefly, cultured Caco-2 were treated with the tested compounds or DMSO for 24h. Cells were then collected by centrifugation at 2000 rpm for 5 min, and the pellet was washed with PBS then centrifuged again at 2000 rpm for 5 min then resuspended in 500μL of the kit’s binding buffer before adding the Annexin V-FITC and PI. The cells were then incubated at room temperature in the dark for 5 min. […]
Assay : Cell Cycle Analysis
Kit used : ab139418_Propidium Iodide Flow Cytometry Kit/BD
Assay samples :Cell culture
Cpd. No. Cpd. No. Cpd. No. Cpd. No.

PANC-1 cells = assay: MTT cell viability assay, PANC-1; assay type: cell-based, human
Description: as §1, §2, §3, §4, §5, §6, §7, §8, §9, §10, §11, §12

HepG2 cells = assay: MTT cell viability assay, HepG2; assay type: cell-based, human; conditions: Homo sapiens, HepG2; MTT, 48 h, average of triplicates; read-out: IC50 (μM) ± SD HepG2
Description: as §1, §2, §3, §4, §5, §6, §7, §8, §9, §10, §11, §12

IC50 (Caco-2 cancer cell line; Homo sapiens, Caco-2, Caco2, MTT report T-4-019-5, Conc. ug/ml, read-out: IC50): 96.4 µg/mL | IC50 (Caco-2 cancer cell line; Homo sapiens, Caco-2, MTT, 48 h, average of triplicates, parent compounds and doxorubicin (Table 2), read-out: IC50 (μM) ± SD Caco-2): 410 µM | IC50 (A549 cells; Homo sapiens, A549, MTT, 48 h, average of triplicates, read-out: IC50 (μM) ± SD A549): 1740 µM | IC50 (A549 cells; Homo sapiens, A549, MTT report T-4-019-5, Conc. ug/ml, read-out: IC50): 314 µg/mL | IC50 (PANC-1 cells; Homo sapiens, PANC-1, Panc1, MTT report T-4-019-5, Conc. ug/ml, read-out: IC50): 195 µg/mL (≈ 1010 µM) | IC50 (HepG2 cells): 810 ± 2170 µM
SMILES: COc1cc(/C=C/C(=O)O)ccc1O [Compound 2, Ferulic acid]
Toxicity % (Caco-2 cancer cell line; Caco2, 15.625 ug/ml): 0.2882% | Toxicity % (Caco-2 cancer cell line; Caco2, 31.25 ug/ml): 9.414% | Toxicity % (Caco-2 cancer cell line; Caco2, 62.5 ug/ml): 22.57% | Toxicity % (Caco-2 cancer cell line; Caco2, 125 ug/ml): 70.61% | Toxicity % (Caco-2 cancer cell line; Caco2, 250 ug/ml): 88.18% | Toxicity % (Caco-2 cancer cell line; Caco2, 500 ug/ml): 84.34% | viability at 15.625 µg/mL (Caco-2 cancer cell line; Homo sapiens, Caco-2, Caco2, 15.625 ug/ml): 99.7% | viability at 31.25 µg/mL (Caco-2 cancer cell line; Homo sapiens, Caco-2, Caco2, 31.25 ug/ml): 90.6% | viability at 62.5 µg/mL (Caco-2 cancer cell line; Homo sapiens, Caco-2, Caco2, 62.5 ug/ml): 77.4% | viability at 125 µg/mL (Caco-2 cancer cell line; Homo sapiens, Caco-2, Caco2, 125 ug/ml): 29.4% | viability at 250 µg/mL (Caco-2 cancer cell line; Homo sapiens, Caco-2, Caco2, 250 ug/ml): 11.8% | viability at 500 µg/mL (Caco-2 cancer cell line; Homo sapiens, Caco-2, Caco2, 500 ug/ml): 15.7% | viability at 48 h, 15.625 ug/ml ([1]; 15.625 ug/ml): 100% | viability at 48 h, 31.25 ug/ml ([1]; 31.25 ug/ml): 99.6% | viability at 48 h, 62.5 ug/ml ([1]; 62.5 ug/ml): 95.5% | viability at 48 h, 125 ug/ml ([1]; 125 ug/ml): 70.2% | viability at 48 h, 250 ug/ml ([1]; 250 ug/ml): 33.2% | viability at 48 h, 500 ug/ml ([1]; 500 ug/ml): 17.5% | Toxicity % (Vero normal cell line; 15.625 ug/ml): 0% | Toxicity % (Vero normal cell line; 31.25 ug/ml): 0.365% | Toxicity % (Vero normal cell line; 62.5 ug/ml): 4.501% | Toxicity % (Vero normal cell line; 125 ug/ml): 29.81% | Toxicity % (Vero normal cell line; 250 ug/ml): 66.79% | Toxicity % (Vero normal cell line; 500 ug/ml): 82.48% | IC50 (Vero normal cell line; Chlorocebus sabaeus, MTT report T-4-019-5, Conc. ug/ml): 196 µg/mL (≈ 1010 µM) | Toxicity % (A549 cells; A549, 15.625 ug/ml): 0.8674% | Toxicity % (A549 cells; A549, 31.25 ug/ml): 1.115% | Toxicity % (A549 cells; A549, 62.5 ug/ml): 0.7435% | Toxicity % (A549 cells; A549, 125 ug/ml): 4.089% | Toxicity % (A549 cells; A549, 250 ug/ml): 59.11% | Toxicity % (A549 cells; A549, 500 ug/ml): 75.96% | viability at 15.625 µg/mL (A549 cells; Homo sapiens, A549, 15.625 ug/ml): 99.1% | viability at 31.25 µg/mL (A549 cells; Homo sapiens, A549, 31.25 ug/ml): 98.9% | viability at 62.5 µg/mL (A549 cells; Homo sapiens, A549, 62.5 ug/ml): 99.3% | viability at 125 µg/mL (A549 cells; Homo sapiens, A549, 125 ug/ml): 95.9% | viability at 250 µg/mL (A549 cells; Homo sapiens, A549, 250 ug/ml): 40.9% | viability at 500 µg/mL (A549 cells; Homo sapiens, A549, 500 ug/ml): 24% | %Pre-G1 (Caco-2 cells): 13.22% and 13.22 ± 0.63% | viability at 15.625 µg/mL (PANC-1 cells; Homo sapiens, PANC-1, Panc1, 15.625 ug/ml): 100% | viability at 31.25 µg/mL (PANC-1 cells; Homo sapiens, PANC-1, Panc1, 31.25 ug/ml): 99.7% | viability at 62.5 µg/mL (PANC-1 cells; Homo sapiens, PANC-1, Panc1, 62.5 ug/ml): 100% | viability at 125 µg/mL (PANC-1 cells; Homo sapiens, PANC-1, Panc1, 125 ug/ml): 86.5% | viability at 250 µg/mL (PANC-1 cells; Homo sapiens, PANC-1, Panc1, 250 ug/ml): 24.9% | viability at 500 µg/mL (PANC-1 cells; Homo sapiens, PANC-1, Panc1, 500 ug/ml): 28.5% | Toxicity % (PANC-1 cells; Panc1, 15.625 ug/ml): 0% | Toxicity % (PANC-1 cells; Panc1, 31.25 ug/ml): 0.2717% | Toxicity % (PANC-1 cells; Panc1, 62.5 ug/ml): 0% | Toxicity % (PANC-1 cells; Panc1, 125 ug/ml): 13.5% | Toxicity % (PANC-1 cells; Panc1, 250 ug/ml): 75.09% | Toxicity % (PANC-1 cells; Panc1, 500 ug/ml): 71.47%
